What follows are compounds tested against T1, IκBα ubiquitinating enzyme (SCF complex: ROC1, Cullin1, Skp1, His-TrCP1; with E1, UbcH5b) (Homo sapiens, UniProt P62877+P63208+Q13616+Q9Y297) (assay: Measurement of ubiquitinating enzyme activity (IκBα ubiquitination, time-resolved fluorescence with Eu(K)-labeled ubiquitin and XL665-labeled anti-GST antibody)). Conditions: enzyme activity inhibition test, method (1), Table 5; read-out: EVALUATION.
T1 construct: His (polyhistidine); made in house; host or cells: insect cells (baculovirus) for the SCF complex and His-E1; E. coli for His-UBCH5b
T1 sequence (Q9Y297 whole entry): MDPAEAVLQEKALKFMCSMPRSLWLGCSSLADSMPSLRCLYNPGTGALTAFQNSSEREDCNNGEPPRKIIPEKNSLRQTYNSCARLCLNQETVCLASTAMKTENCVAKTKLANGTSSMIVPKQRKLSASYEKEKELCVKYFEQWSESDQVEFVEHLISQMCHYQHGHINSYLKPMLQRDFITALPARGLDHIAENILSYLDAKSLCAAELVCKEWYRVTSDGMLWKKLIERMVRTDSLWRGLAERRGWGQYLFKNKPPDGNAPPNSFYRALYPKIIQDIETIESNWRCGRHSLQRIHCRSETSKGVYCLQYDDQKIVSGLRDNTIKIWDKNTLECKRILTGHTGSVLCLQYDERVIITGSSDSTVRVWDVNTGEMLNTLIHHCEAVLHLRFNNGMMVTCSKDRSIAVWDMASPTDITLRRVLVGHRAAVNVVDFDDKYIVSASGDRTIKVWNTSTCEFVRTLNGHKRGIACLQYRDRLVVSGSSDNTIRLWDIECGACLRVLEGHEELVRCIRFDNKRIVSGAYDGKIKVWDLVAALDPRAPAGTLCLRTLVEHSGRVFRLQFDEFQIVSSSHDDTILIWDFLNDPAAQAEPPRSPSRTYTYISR
T1 sequence (Q13616 whole entry): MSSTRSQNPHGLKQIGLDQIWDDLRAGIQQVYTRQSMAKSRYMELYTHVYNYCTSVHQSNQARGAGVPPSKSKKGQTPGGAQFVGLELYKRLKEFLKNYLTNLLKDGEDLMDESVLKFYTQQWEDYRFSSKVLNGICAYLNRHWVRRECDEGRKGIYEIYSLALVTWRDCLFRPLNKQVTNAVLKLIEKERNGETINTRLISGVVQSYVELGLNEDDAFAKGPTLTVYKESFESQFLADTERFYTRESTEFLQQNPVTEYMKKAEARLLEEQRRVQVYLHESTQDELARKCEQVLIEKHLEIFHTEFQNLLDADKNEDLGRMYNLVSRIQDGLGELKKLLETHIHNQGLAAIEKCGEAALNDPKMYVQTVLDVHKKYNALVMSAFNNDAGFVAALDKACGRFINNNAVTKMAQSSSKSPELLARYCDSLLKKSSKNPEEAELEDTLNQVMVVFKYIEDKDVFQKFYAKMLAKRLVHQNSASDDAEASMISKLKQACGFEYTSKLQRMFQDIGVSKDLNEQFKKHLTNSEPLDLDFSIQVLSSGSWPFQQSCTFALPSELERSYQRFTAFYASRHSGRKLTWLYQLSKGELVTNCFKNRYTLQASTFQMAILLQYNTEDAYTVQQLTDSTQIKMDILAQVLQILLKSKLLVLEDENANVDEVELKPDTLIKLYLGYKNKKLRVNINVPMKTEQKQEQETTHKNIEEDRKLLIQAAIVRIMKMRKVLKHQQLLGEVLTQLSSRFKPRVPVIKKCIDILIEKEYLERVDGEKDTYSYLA
T1 sequence (P63208 whole entry): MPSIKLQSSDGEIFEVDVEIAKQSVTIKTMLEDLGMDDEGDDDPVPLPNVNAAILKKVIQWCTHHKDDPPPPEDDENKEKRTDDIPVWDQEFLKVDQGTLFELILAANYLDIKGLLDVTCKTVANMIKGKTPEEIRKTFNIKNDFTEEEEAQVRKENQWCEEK
T1 sequence (P62877 whole entry): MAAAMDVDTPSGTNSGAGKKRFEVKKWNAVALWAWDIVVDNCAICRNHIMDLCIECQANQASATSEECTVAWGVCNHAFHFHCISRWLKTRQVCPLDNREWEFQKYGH
Assay type: biochemical
Procedure: Method 1: Measurement of ubiquitinating enzyme activity
A recombinant vector His-UBCH5b containing a polyhistidine tag (His) and UBCH5b was prepared. E. coli was transformed with the vector, the protein was expressed, and affinity purification was carried out using Ni-NTA agarose (Qiagen). Four types of recombinant baculoviruses (ROC1, Cullin1, Skp1, and His-TrCP1) were prepared for the SCF complex protein, insect cells were infected in quadruplicate for expression, and affinity purification was carried out using Ni-NTA agarose. Recombinant baculoviruses His-IKKβ, His-E1 were prepared. The insect cells were infected with each of those for expression, and affinity purification was carried out using Ni-NTA agarose. A recombinant vector GST-IκBα was prepared by fusing glutathione-S-transferase tag (GST) and IκBα, E. coli was transformed with the vector for the protein expression, and affinity purification was carried out using glutathione sepharose (Amersham Biosciences). Genetic transformants were prepared by PCR amplification followed by recombination, all of which were based on published human-derived sequences.
Phosphorylation reaction of IκBα was performed by incubating the above-mentioned assay buffer (50 mM Tris-HCl (pH7.4), 2 mM ATP, 5 mM MgCl2, 0.5 mM DTT, 0.1% BSA) containing IκBα and IKKβ at room temperature for 1 hour. Ubiquitination reactions were carried out as follows. Compound samples at various concentrations, ubiquitin, Eu (K)-labeled ubiquitin, E1, UbcH5b, and SCF complex were added to phosphorylated IκBα, and then this was incubated at room temperature for 30 minutes. The reaction was terminated by adding EDTA, the above-mentioned revelation buffer (100 mM phosphate buffer (pH7.0), 0.5 M KF, 0.1% BSA) containing XL665-labeled anti-GST antibody was added and this was left to stand at room temperature for 2 hours. Measurements were made using ARVO-HTS (Perkin Elmer). The ratio of fluorescence intensities at 620 nm and 665 nm (Em 665 nm/Em 620 nm x 10,000) with excitation light at 337 nm was measured.
The ubiquitination level without the addition of a compound sample was used as the control value, and the level in the absence of SCF complex was used as the blank value for the assays. Inhibitory activities of the compounds were indicated as % inhibition = 100 - (value with a compound sample added - blank value) / (control value - blank value) x 100. IC50 was indicated as the concentration of the compound showing 50% inhibition. Eu (K)-labeled ubiquitin, XL665-labeled anti-GST antibody, and XL665-labeled anti-His antibody were purchased from CIS bio international. Costar solid black plates (96 wells) were used for the assays.
In the case of `CC1=NN(c2ccccc2)C(=O)/C1=C\c1ccc(OCC(=O)Nc2ccccc2)cc1` [Compound 205], the IC50 is reported as < 40 µM.
For `CCOC(=O)CN1CCN(c2ccc(/C=C3\C(=O)N(c4cccc(C(=O)O)c4)N=C3C)cc2)CC1` [Compound 446], the IC50 was < 40 µM.
With `O=C(O)c1ccc(N2N=C(c3cccnc3)/C(=C/c3ccc4c(c3)OCCO4)C2=O)cc1` [Compound 310] the IC50 was 10 to 20 µM.
`COc1cc(/C=C2\C(=O)N(c3ccccc3)N=C2c2cccnc2)ccc1O` [Compound 60] was tested, and the IC50 was < 40 µM.
With `CC1=NN(c2ccc(C(=O)N3CCN(c4ccccc4)CC3)cc2)C(=O)C1=Cc1ccc2[nH]ccc2c1` [Compound 353] the IC50 was < 10 µM.
`CCCCC1=NN(c2cccc(C(=O)O)c2)C(=O)/C1=C\c1ccc2c(c1)OCCO2` [Compound 470] showed an IC50 of 10 to 20 µM.
In the case of `CC1=NN(c2ccc(S(N)(=O)=O)cc2)C(=O)C1=Cc1cccc2cc[nH]c12` [Compound 151], the IC50 is reported as < 10 µM.
With `COc1ccc(C2=NN(c3ccc(C(=O)O)cc3)C(=O)/C2=C\c2ccc(-n3ccnc3)cc2)cc1OC` [Compound 282] the IC50 was < 40 µM.
In the case of `CC1=NN(c2ccc(S(N)(=O)=O)cc2)C(=O)C1=Cc1ccc(N2CCNCC2)cc1` [Compound 183], the IC50 is reported as 10 to 20 µM.
For `CC1=NN(c2cccc(C(=O)O)c2)C(=O)/C1=C\c1ccc2occc2c1` [Compound 368], the IC50 was < 10 µM.
`CCOC(=O)c1ccc(COc2ccc(/C=C3\C(=O)N(c4cccc(C(=O)O)c4)N=C3C)cc2OC)o1` [Compound 395] was tested, and the IC50 was < 40 µM.
`CC1=NN(c2cccc(C(=O)O)c2)C(=O)/C1=C\c1cccc2cc[nH]c12` [Compound 356] was tested, and the IC50 was < 10 µM.
`CC1=NN(c2ccc(S(N)(=O)=O)cc2)C(=O)/C1=C\c1ccc(OS(=O)(=O)c2ccc(C(C)(C)C)cc2)cc1` [Compound 221] gave an IC50 of 10 to 20 µM.
Compound `O=C1/C(=C\c2ccc(-n3cccn3)cc2)C(Cc2ccccc2)=NN1c1ccccc1` [Compound 30] has an IC50 of 10 to 20 µM.
In the case of `CC1=NN(c2cccc(C(=O)O)c2)C(=O)/C1=C\c1c[nH]c2ccc(Cl)cc12` [Compound 377], the IC50 is reported as < 10 µM.
For `CC1=NN(c2ccc(S(N)(=O)=O)cc2)C(=O)C1=Cc1ccc(N2CCCC2CO)cc1` (stereo not drawn) [Compound 172], the IC50 was < 40 µM.
In the case of `O=C1/C(=C\c2ccc(-n3cccn3)cc2)C(c2cccnc2)=NN1c1ccccc1` [Compound 67], the IC50 is reported as < 40 µM.
For `COCC1=NN(c2ccc(C(=O)O)cc2)C(=O)/C1=C\c1ccc2[nH]ccc2c1` [Compound 465], the IC50 was < 10 µM.
For `COc1cc(/C=C2\C(=O)N(c3cccc(S(N)(=O)=O)c3)N=C2C)ccc1OS(=O)(=O)c1ccc(C)cc1` [Compound 203], the IC50 was 10 to 20 µM.
For `CC1=NN(c2ccc(S(N)(=O)=O)cc2)C(=O)/C1=C\c1ccc(N2CCC(CO)CC2)cc1` [Compound 171], the IC50 was 10 to 20 µM.
With `CCCCC1=NN(c2ccccc2)C(=O)/C1=C\c1ccc2ccccc2c1` [Compound 51] the IC50 was < 40 µM.
For `CC1=NN(c2ccc(S(N)(=O)=O)cc2)C(=O)C1=Cc1cc2ccccc2n1C` [Compound 142], the IC50 was < 40 µM.
With `COc1ccccc1-c1ccc(/C=C2\C(=O)N(c3cccc(C(=O)O)c3)N=C2C)o1` [Compound 487] the IC50 was < 40 µM.
With `O=C(O)c1ccc(N2N=C(C3CC3)/C(=C/c3ccc(-n4ccnc4)cc3)C2=O)cc1` [Compound 318] the IC50 was < 10 µM.
For `COC(=O)c1ccc(COc2ccc(/C=C3\C(=O)N(c4ccccc4)N=C3C)cc2OC)cc1` [Compound 122], the IC50 was < 40 µM.
With `O=C1/C(=C\c2ccc(-c3ccccc3F)o2)C(Cc2ccccc2)=NN1c1ccccc1` [Compound 26] the IC50 was < 40 µM.
With `CC1=NN(c2cccc(S(N)(=O)=O)c2)C(=O)/C1=C\c1ccc(N2CCN(c3ccc(F)cc3)CC2)cc1` [Compound 177] the IC50 was 10 to 20 µM.
In the case of `CC1=NN(c2cccc(S(N)(=O)=O)c2)C(=O)C1=Cc1cccc2[nH]ccc12` [Compound 137], the IC50 is reported as 10 to 20 µM.
With `COCC1=NN(c2ccc(C(=O)O)cc2)C(=O)C1=Cc1ccc(N2CCC(O)CC2)s1` [Compound 240] the IC50 was < 40 µM.
With `CC1=NN(c2cccc(C(=O)O)c2)C(=O)/C1=C\c1ccc(S(=O)(=O)O)o1` [Compound 520] the IC50 was 10 to 20 µM.
With `CC1=NN(c2ccc(C(=O)N3CCCCC3)cc2)C(=O)/C1=C\c1ccc2[nH]ccc2c1` [Compound 358] the IC50 was < 10 µM.
`O=C(O)c1ccc(N2N=C(c3cccnc3)C(=Cc3ccc4ccccc4c3)C2=O)cc1` [Compound 345] gave an IC50 of 10 to 20 µM.
`COc1cc(/C=C2\C(=O)N(c3cccc(C(=O)O)c3)N=C2C)ccc1OCc1c(C)noc1C` [Compound 394] gave an IC50 of 10 to 20 µM.
With `COCC1=NN(c2ccccc2)C(=O)/C1=C\c1ccc(CO)o1` [Compound 7] the IC50 was < 40 µM.
In the case of `O=C1/C(=C\c2ccc(-n3cncn3)cc2)C(C2CC2)=NN1c1ccccc1` [Compound 80], the IC50 is reported as < 40 µM.
For `O=C1/C(=C\c2ccc3ccccc3c2)C(Cc2ccccc2)=NN1c1ccccc1` [Compound 23], the IC50 was < 40 µM.
`COCC1=NN(c2ccc(C(=O)O)cc2)C(=O)/C1=C\c1ccc(N2CCN(C)CC2)cc1` [Compound 241] was tested, and the IC50 was < 40 µM.
For `CC1=NN(c2ccc(C(=O)N(C)C)cc2)C(=O)/C1=C\c1ccc2[nH]ccc2c1` [Compound 363], the IC50 was 10 to 20 µM.
In the case of `O=C(O)c1ccc(N2N=C(c3cccnc3)/C(=C/c3ccc(N4CCCC4)cc3)C2=O)cc1` [Compound 309], the IC50 is reported as < 40 µM.
In the case of `CC1=NN(c2ccc(C(=O)O)cc2)C(=O)/C1=C\c1cccs1` [Compound 517], the IC50 is reported as < 40 µM.
`COc1cc(/C=C2\C(=O)N(c3ccccc3)N=C2Cc2ccccc2)ccc1O` [Compound 22] gave an IC50 of 10 to 20 µM.
For `CC(=O)OCc1ccc(/C=C2\C(=O)N(c3ccc(C(=O)O)cc3)N=C2C)o1` [Compound 524], the IC50 was < 40 µM.
With `COc1cc(/C=C2\C(=O)N(c3ccc(S(N)(=O)=O)cc3)N=C2C)ccc1OCc1c(C)noc1C` [Compound 158] the IC50 was < 40 µM.
For `CC1=NN(c2cccc(S(N)(=O)=O)c2)C(=O)/C1=C\c1ccc2cc[nH]c2c1` [Compound 149], the IC50 was < 10 µM.
With `CC1=NN(c2ccc(C(=O)O)cc2)C(=O)/C1=C\c1ccc2cc[nH]c2c1` [Compound 380] the IC50 was < 10 µM.
For `CC1=NN(c2ccc(C(=O)O)cc2)C(=O)/C1=C\c1ccsc1` [Compound 511], the IC50 was < 40 µM.
`COc1ccc(C2=NN(c3ccccc3)C(=O)C2=Cc2ccc(CO)o2)cc1OC` [Compound 35] was tested, and the IC50 was < 40 µM.
For `CC1=NN(c2ccc(C(=O)O)cc2)C(=O)C1=Cc1c[nH]c2ccc(Cl)cc12` [Compound 378], the IC50 was < 10 µM.
For `CC1=NN(c2ccc(C(=O)N3CCCC3CO)cc2)C(=O)/C1=C\c1ccc2[nH]ccc2c1` (stereo not drawn) [Compound 362], the IC50 was < 10 µM.
Work on `COc1cc(/C=C2\C(=O)N(c3ccc(C(=O)O)cc3)N=C2c2ccc(OC)c(OC)c2)ccc1O` [Compound 332] yielded an IC50 of 10 to 20 µM.
`CC1=NN(c2cccc(C(=O)O)c2)C(=O)/C1=C\c1cccs1` [Compound 508] was tested, and the IC50 was < 40 µM.
In the case of `NS(=O)(=O)c1ccc(N2N=C(C3CC3)/C(=C/c3ccc(-n4cccn4)cc3)C2=O)cc1` [Compound 110], the IC50 is reported as < 10 µM.
`COCC1=NN(c2ccccc2)C(=O)/C1=C\c1ccc(OCc2ccccc2)c(OC)c1` [Compound 3] was tested, and the IC50 was 10 to 20 µM.
With `CC1=NN(c2ccc(S(N)(=O)=O)cc2)C(=O)/C1=C\c1ccc(-n2cncn2)cc1` [Compound 109] the IC50 was < 40 µM.
For `COc1cc(/C=C2\C(=O)N(c3cccc(S(N)(=O)=O)c3)N=C2C)ccc1OCC1CC1` [Compound 160], the IC50 was < 40 µM.
With `CC1=NN(c2cccc(C(=O)O)c2)C(=O)/C1=C\c1ccoc1` [Compound 418] the IC50 was 10 to 20 µM.
`CC1=NN(c2cccc(S(N)(=O)=O)c2)C(=O)/C1=C\c1c[nH]c2ccc(Cl)cc12` [Compound 147] was tested, and the IC50 was < 10 µM.
In the case of `CCOC(=O)c1ccc(COc2ccc(/C=C3\C(=O)N(c4cccc(S(N)(=O)=O)c4)N=C3C)cc2OC)o1` [Compound 155], the IC50 is reported as < 40 µM.
Compound `CCCCC1=NN(c2ccccc2)C(=O)/C1=C\c1ccc2c(c1)OCCO2` [Compound 98] has an IC50 of 10 to 20 µM.
For `O=C1/C(=C\c2ccc(-c3ccccc3F)o2)C(c2ccoc2)=NN1c1ccccc1` [Compound 15], the IC50 was < 10 µM.
With `COc1cc(C=C2C(=O)N(c3ccc(S(N)(=O)=O)cc3)N=C2C)ccc1OCC1CCCCC1` [Compound 161] the IC50 was < 40 µM.
`COc1cc(/C=C2\C(=O)N(c3ccccc3)N=C2c2ccncc2)ccc1O` [Compound 40] was tested, and the IC50 was < 40 µM.

Same assay, conditions: read-out: EVALUATION; enzyme activity inhibition test, method (1), Table 5
`CC1=NN(c2cccc(C(=O)O)c2)C(=O)C1=Cc1ccc(-c2cnn(C)c2)o1` [Compound 495] was tested, and the IC50 was 10 to 20 µM.

Reference: EP1900728A1 (Genecare Research Institute Co., Ltd, priority 2005, dated 2006)
